Results: patent US7718641B2, “Pyrrolo [3,4-H] isoquinoline compounds and methods for modulating gated ion channels” (Aros Pharma ApS, priority 2005, dated 2010)

Assays:
[1] = system: CFA-induced thermal hyperalgesia; experiment: CFA model, thermal hyperalgesia (Hargreaves plantar test); assay type: in vivo, rat
Experimental: Assessment of thermal hyperalgesia: Baseline and post-treatment withdrawal latencies to a noxious thermal stimulus were measured according to Hargreaves (Hargreaves et al., 1988) using a plantar test analgesia meter (IITC, Woodland Hills, Calif., model # 336). The stimulus intensity was set at 30% of maximum output and the cut-off time was set at 30 seconds. Rats were placed on a glass plate warmed to 28° C. and allowed to habituate to the testing chambers for a minimum of 15 minutes prior to each testing session. The thermal stimulus was applied to the plantar surface of the paw, and the mean latency of three readings on each paw was used as the latency value for each time point. Thermal thresholds were defined as the latency in seconds to the first pain behavior, which includes nocifensive paw withdrawal, flinching, biting and/or licking of the stimulated paw. The mean and standard error of the mean (SEM) were determined for the injured and normal paws for each treatment group.
For comparison, results with morphine (6 mg/kg sc) and indomethacin (30 mg/kg po) are shown. […] Data are expressed as mean±SEM, (n=10). **P<0.01, vs. baseline.

[2] = system: CFA-induced inflammatory pain; experiment: CFA model of chronic inflammatory pain, hindpaw weight bearing (Incapacitance Tester); assay type: in vivo, rat; conditions: 24 h after CFA, 60 min after drug injection, n=7-8
Experimental: Rats (body weight 260-300 g) were given a s.c. injection of CFA (50% in saline, 100 μl, Sigma) into the plantar surface of the hindpaw under brief halothane anaesthesia. After 24 h, they were then tested for hindpaw weight bearing responses, as assessed using an Incapacitance Tester (Linton Instrumentation, UK), (Zhu et al., 2005). The instrument incorporates a dual channel scale that separately measures the weight of the animal distributed to each hindpaw. While normal rats distribute their body weight equally between the two hindpaws (50-50), the discrepancy of weight distribution between an injured and non-injured paw is a natural reflection of the discomfort level in the injured paw (nocifensive behavior). The rats were placed in the plastic chamber designed so that each hindpaw rested on a separate transducer pad. […] For each rat, three readings from each paw were taken and then averaged. Side-to-side weight bearing difference was calculated as the average of the absolute value of the difference between two hindpaws from three trials (right paw reading-left paw reading).
Hindpaw weight bearing responses were measured in male Sprague-Dawley rats for 2-3 days prior to being given a hindpaw injection of CFA. Twenty-four hours later baseline responses were measured and rats were then administered Compound A (5, 10 and 20 mg/kg, i.p.), Compound H (10, 30 and 60 mg/kg) and morphine (3, 6 and 10 mg/kg). Weight bearing responses were then measured at 30, 60 and 120 min after drug or vehicle injection (data shown at 60 min.). […] Data are expressed as mean +/−SEM. *P<0.05, **P<0.01, *** P<0.001 vs baseline; +++: P<0.001 vs vehicle. All groups n=7-8.

| Structure (SMILES) | efficacy on CFA-induced thermal hyperalgesia ([1]; 30 mg/kg po) | efficacy on CFA-induced thermal hyperalgesia ([1]; 6 mg/kg sc) | CFA-induced change in hindpaw weight bearing compared with vehicle [2] |
| --- | --- | --- | --- |
| COc1ccc2c(c1)c(CC(=O)O)c(C)n2C(=O)c1ccc(Cl)cc1 [indomethacin, reference compound] | fully efficacious | – | – |
| CN1CC[C@]23c4c5ccc(O)c4O[C@H]2[C@@H](O)C=C[C@H]3[C@H]1C5 [morphine, reference compound] | – | fully efficacious | marked dose-dependent attenuation in the CFA-induced change in weight bearing |
